Where two headings read alike, the source gives them in different places. Ends that are not written are not given here.
Tests used:
mice [1] = assay: LPS LD50 in mouse model; format: in vivo
Experimental: In mouse model the LD50 of LPS depends on liver protein synthesis. […] However, in mice pretreated with β-galactosamine to inhibit liver protein synthesis, the mouse LD50 is approximately 5 nanograms (200 ng/kg), 30,000 times less. By comparison, normal humans show reactions at 2-4 nanograms of LPS per kilogram. The human LD50 for LPS is below 5 micrograms per kilogram, three orders of magnitude lower than mice. Humans are […] larger yet die at doses only double the dose that kills a 25-gram mouse. […] Human LPS sensitivity is believed to be due to mutations in sialic acid binding Ig-like lectins (siglecs). Phenotypically, knockouts of siglecs produce hyper-reactive immune system components. The missing siglec-13 and inactivated siglec-17 that are active in other primates affects control over TLR4. TLR4 is the receptor for LPS. It is also the target for HMGB1, in DAMP signaling.

mice [2] = settings: cited from earlier work
humans = settings: cited from earlier work
Rodents = settings: cited from earlier work
Dogs = settings: cited from earlier work
TNFα = settings: cited from earlier work
sepsis [3] = settings: in vivo; cited from earlier work
sepsis [4] = settings: animal studies, as long as there is not an underlying infection; cited from earlier work

Molecule: lipopolysaccharide [LPS]
- fold lower LD50 in β-galactosamine pretreated vs normal mice (mice [1]): 30,000 times
- LPS LD50 (mice [2]; mice pretreated with β-galactosamine to inhibit liver protein synthesis, per animal): approximately 5 nanograms
- LPS LD50 (mice [2]; normal 25 gram mice, per animal): approximately 150 micrograms
- LPS LD50 (mice [2]; normal 25 gram mice): ~6 mg/kg
- time for LD50 dose to complete its course (mice [2]; normal 25 gram mice): 35 h
- LPS LD50 (humans; average adult human, per person): 300 micrograms
- LPS LD50 (humans; human): below 5 micrograms per kilogram
- LPS dose at which reactions are shown (humans; normal humans): 2-4 nanograms of LPS per kilogram

Molecule: Polymyxin B sulfate
- tolerated dose (Rodents): ≥ 100 mg/kg
- dose at which animals begin dying (Dogs): 8 mg/kg

Molecule: COc1cc(CC(C)N)c(OC)cc1I (stereo not shown) [DOI, 2,5-Dimethoxy-4-iodoamphetamine]
- TNFα inhibition (in words) (TNFα): strongest TNFα inhibitor known

Molecule: ghrelin: Ghrelin, injected to rescue from sepsis (GSSFLSPEHQRVQQRKESKKPPAKLQPR; ends and bridges not checked; UniProt Q9UBU3 24-51, looked up)
- rescue from sepsis (in words) (sepsis [3]): rescue from sepsis with remarkable effect

B1: IL-10: IL-10, injected to temper sepsis (protein, UniProt P22301 19-178, looked up)
Interleukin-10: SPGQGTQSENSCTHFPGNLPNMLRDLRDAFSRVKTFFQMKDQLDNLLLKESLLEDFKGYLGCQALSEMIQFYLEEVMPQAENQDPDIKAHVNSLGENLKTLRLRLRRCHRFLPCENKSKAVEQVKNAFNKLQEKGIYKAMSEFDIFINYIEAYMTMKIRN
- effect on sepsis (in words) (sepsis [4]): effective in animal studies at tempering sepsis
